Test results published in article PMC11575720 (RSC Advances, 2024).

Columns and labels:
L. major DHFR = L. major DHFR (Leishmania major, UniProt P07382); assay: L. major DHFR; type: biochemical
L. major PTR1 = biological target: T1, L. major PTR1 (Leishmania major, UniProt Q01782); assay: L. major PTR1 enzyme inhibition assay; type: biochemical
T1 sequence (Q01782 1-288): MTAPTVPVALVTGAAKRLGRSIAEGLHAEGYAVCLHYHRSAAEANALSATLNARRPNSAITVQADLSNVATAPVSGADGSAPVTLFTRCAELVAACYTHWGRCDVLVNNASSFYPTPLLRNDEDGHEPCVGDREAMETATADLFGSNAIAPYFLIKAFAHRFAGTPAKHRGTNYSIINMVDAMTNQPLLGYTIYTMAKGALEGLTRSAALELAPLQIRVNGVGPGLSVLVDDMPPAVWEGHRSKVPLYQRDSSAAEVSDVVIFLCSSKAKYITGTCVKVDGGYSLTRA

Sequence of L. major DHFR (P07382 whole entry): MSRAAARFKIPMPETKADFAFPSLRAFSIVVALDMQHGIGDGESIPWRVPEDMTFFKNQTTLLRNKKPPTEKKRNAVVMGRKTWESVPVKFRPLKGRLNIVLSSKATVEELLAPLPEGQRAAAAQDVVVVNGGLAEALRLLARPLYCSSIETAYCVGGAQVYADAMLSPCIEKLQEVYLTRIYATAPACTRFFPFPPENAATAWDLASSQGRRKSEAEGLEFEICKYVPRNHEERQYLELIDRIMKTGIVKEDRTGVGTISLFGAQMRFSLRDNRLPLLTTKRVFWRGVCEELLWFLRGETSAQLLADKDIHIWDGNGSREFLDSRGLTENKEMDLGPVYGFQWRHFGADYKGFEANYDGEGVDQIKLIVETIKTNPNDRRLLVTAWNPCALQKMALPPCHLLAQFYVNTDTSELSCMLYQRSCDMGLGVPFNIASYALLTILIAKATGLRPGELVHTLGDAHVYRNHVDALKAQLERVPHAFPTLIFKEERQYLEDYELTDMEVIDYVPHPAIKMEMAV

Compound	IC50 (L. major DHFR) [µM]	IC50 (L. major PTR1) [µM]
O=C(NC(=S)Nc1cccc(O)c1)c1cccs1 [Compound 4g, N-((3-Hydroxyphenyl)carbamothioyl)thiophene-2-carboxamide]	8.09 ± 0.01	0.58 ± 0.05
Cc1nc(NC(=S)NCc2ccco2)nc(-c2ccccc2)c1C(=O)N1CCC(C(=O)O)CC1 [Compound 20a, 1-(2-(3-(Furan-2-ylmethyl)thioureido)-4-methyl-6-phenylpyrimidine-5-carbonyl)piperidine-4-carboxylic acid]	2.63 ± 0.01	15.86 ± 0.01
Cc1nc(NC(=S)NCc2cccs2)nc(-c2ccccc2)c1C(=O)N1CCC(C(=O)O)CC1 [Compound 20b, 1-(4-Methyl-6-phenyl-2-(3-(thiophen-2-ylmethyl)thioureido)pyrimidine-5-carbonyl)piperidine-4-carboxylic acid]	1.14 ± 0.01	19.89 ± 0.01
